In patent publication US7517901B2, “p38 MAP kinase inhibitors and methods for using the same” (Roche Palo Alto LLC, priority 2005, dated 2009):

How the values were obtained:
[1] = target: T1, p38 MAP kinase (Homo sapiens, UniProt Q16539); test: p38 (MAP) kinase in vitro assay (transfer of γ-33P from ATP to Myelin Basic Protein); assay type: biochemical; conditions: phosphorylated recombinant p38 MAP kinase, MBP substrate, γ-33P-ATP, 30° C.
T1 construct: made in house; host or cells: E. coli (co-expressed with SEK-1 and MEKK)
T1 sequence (Q16539 whole entry): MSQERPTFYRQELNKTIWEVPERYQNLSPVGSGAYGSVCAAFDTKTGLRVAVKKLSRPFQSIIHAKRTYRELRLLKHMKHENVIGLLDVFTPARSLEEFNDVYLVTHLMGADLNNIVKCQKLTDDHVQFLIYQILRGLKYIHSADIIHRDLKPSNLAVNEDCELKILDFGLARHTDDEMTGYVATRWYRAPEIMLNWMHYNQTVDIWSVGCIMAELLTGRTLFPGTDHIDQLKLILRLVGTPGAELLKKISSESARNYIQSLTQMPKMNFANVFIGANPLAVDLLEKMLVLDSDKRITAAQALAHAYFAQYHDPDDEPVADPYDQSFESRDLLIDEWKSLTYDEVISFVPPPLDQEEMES
Description: This example illustrates a p38 (MAP) kinase in vitro assay useful for evaluating the compounds of the invention.
The p38 MAP kinase inhibitory activity of compounds of this invention in vitro was determined by measuring the transfer of the γ-phosphate from γ-^33P-ATP by p-38 kinase to Myelin Basic Protein (MBP), using a minor modification of the method described in Ahn, et al., J. Biol. Chem. 266:4220-4227 (1991).
The phosphorylated form of the recombinant p38 MAP kinase was co-expressed with SEK-1 and MEKK in E. Coli (see, Khokhlatchev, et al., J. Biol. Chem. 272:11057-11062 (1997)) and then purified by affinity chromatography using a Nickel column.
The phosphorylated p38 MAP kinase was diluted in kinase buffer (20 mM 3-(N-morpholino)propanesulfonic acid, pH 7.2, 25 mM β-glycerol phosphate, 5 mM ethylene glycol-bis(beta-aminoethyl ether)-N,N,N′,N′-tetraacetic acid, 1 mM sodium ortho-vanadate, 1 mM dithiothreitol, 40 mM magnesium chloride). Test compound dissolved in DMSO or only DMSO (control) was added and the samples were incubated for 10 min at 30° C. The kinase reaction was initiated by the addition of a substrate cocktail containing MBP and γ-^33P-ATP. […] The phosphorylated MBP was then separated from the residual γ-^33P-ATP using a phosphocellulose membrane (Millipore, Bedford, Mass.) and quantitated using a scintillation counter (Packard, Meriden, Conn.).

melting point | IC50 [1] | Structure (SMILES)
187 to 189 °C | – | O=S(=O)(Nc1ccc2c(-c3ccccc3Cl)n[nH]c2c1)c1cccc(Cl)c1 [Compound 12, 3-Chloro-N-[3-(2-chloro-phenyl)-1H-indazol-6-yl]-benzenesulfonamide]
– | ~0.02 µM | O=S(=O)(Nc1ccc2c(-c3ccccc3Cl)n[nH]c2c1)c1cccc(Cl)c1F [Compound 46, 3-Chloro-N-[3-(2-chloro-phenyl)-1H-indazol-6-yl]-2-fluoro-benzenesulfonamide]
